In one assay the test system is S. pneumoniae ATCC 6301. Briefly: microdilution assay MIC, S. pneumoniae ATCC 6301. Type of assay: cell-based, Streptococcus pneumoniae. The conditions noted are these: S. pneumoniae ATCC 6301, erythromycin sensitive strain; average where multiple assays. The procedure: (§1) In Table B, in some instances multiple assays were performed for a compound/strain combination, in which case the reported MIC is the average. S. pneumoniae ATCC 6301, ATCC 700671, and ATCC 49619 and S. aureus ATCC 6538p and ATCC 29213 are erythromycin sensitive strains.
(In broth dilution the organism is exposed to a series of concentrations in liquid medium.)

Assay [1] has as its system S. pneumoniae ATCC 700671. Briefly: microdilution assay MIC, S. pneumoniae ATCC 700671. Type of assay: cell-based, Streptococcus pneumoniae. The conditions noted are these: S. pneumoniae ATCC 700671, erythromycin sensitive strain; average where multiple assays. On the procedure:
as §1

For assay [2], the system named is S. pneumoniae ATCC 700676. Briefly: microdilution assay MIC, S. pneumoniae ATCC 700676. Type of assay: cell-based, Streptococcus pneumoniae. The conditions noted are these: S. pneumoniae ATCC 700676, erythromycin A resistant strain; average where multiple assays. The procedure: as §1
Assay [3] has as its system S. pneumoniae ATCC 700677. Briefly: microdilution assay MIC, S. pneumoniae ATCC 700677. Type of assay: cell-based, Streptococcus pneumoniae. The conditions noted are these: S. pneumoniae ATCC 700677, erythromycin A resistant strain; average where multiple assays. On the procedure:
as §1

For assay [4], the system named is S. pneumoniae ATCC 700905. Briefly: microdilution assay MIC, S. pneumoniae ATCC 700905. The conditions noted are these: S. pneumoniae ATCC 700905, erythromycin A resistant strain; average where multiple assays. Type of assay: cell-based, Streptococcus pneumoniae. The procedure:
as §1

Assay [5] concerns S. pneumoniae ATCC 700906. Briefly: microdilution assay MIC, S. pneumoniae ATCC 700906. The assay is classed as cell-based, Streptococcus pneumoniae. The conditions noted are these: S. pneumoniae ATCC 700906, erythromycin A resistant strain; average where multiple assays. On the procedure:
(§2) In Table B, in some instances multiple assays were performed for a compound/strain combination, in which case the reported MIC is the average.

The next assay has as its system S. pneumoniae ATCC 49619. Briefly: microdilution assay MIC, S. pneumoniae ATCC 49619. The assay is classed as cell-based, Streptococcus pneumoniae. The conditions noted are these: S. pneumoniae ATCC 49619, erythromycin sensitive strain; average where multiple assays. On the procedure: as §1
Another assay has as its system H. influenzae ATCC 9006. Briefly: microdilution assay MIC, H. influenzae ATCC 9006. Type of assay: cell-based, Haemophilus influenzae. The conditions noted are these: average where multiple assays. On the procedure:
as §1

The next assay concerns H. influenzae ATCC 49766. Briefly: microdilution assay MIC, H. influenzae ATCC 49766. The assay is classed as cell-based, Haemophilus influenzae. The conditions noted are these: average where multiple assays. On the procedure:
as §1

In a further assay the test system is S. aureus ATCC 6538p. Briefly: microdilution assay MIC, S. aureus ATCC 6538p. Type of assay: cell-based, Staphylococcus aureus. The conditions noted are these: erythromycin sensitive strain, average where multiple assays. The procedure: as §1
In the next assay the test system is S. aureus ATCC 29213. Briefly: microdilution assay MIC, S. aureus ATCC 29213. Type of assay: cell-based, Staphylococcus aureus. The conditions noted are these: S. aureus ATCC 29213, erythromycin sensitive strain; average where multiple assays. On the procedure:
as §1

The test system of assay [6] is S. epidermidis ATCC 12228. Briefly: microdilution assay MIC, S. epidermidis ATCC 12228. The assay is classed as cell-based, Staphylococcus epidermidis. The conditions noted are these: average where multiple assays. On the procedure: as §1
A further assay deals with S. aureus ATCC 14154. Briefly: microdilution assay MIC, S. aureus ATCC 14154. The assay is classed as cell-based, Staphylococcus aureus. The conditions noted are these: S. aureus ATCC 14154, erythromycin A resistant strain; average where multiple assays. The procedure: as §2

Where only a bound is given, the exact number is not on record here.

Regarding `COC1(C)CC(C)C(=O)C(C)C2NC(=O)OC2(C)C(CCN2CCCCC2)OC(=O)C(C)C(=O)C(C)C1OC1OC(C)CC(N(C)C)C1O` (centres unmarked) [Compound 102], the MIC was 0.098 µg/mL with S. pneumoniae ATCC 6301; 3.12 µg/mL in assay [1]; 0.78 µg/mL in assay [2]; greater than 12.5 µg/mL in assay [3]; 0.098 µg/mL in [4]; greater than 12.5 µg/mL in [5]. For the same compound, the figures for the MIC in the assay with S. pneumoniae ATCC 49619, in the assay on H. influenzae ATCC 9006 and in the assay with H. influenzae ATCC 49766 were 0.2 µg/mL, 3.12 µg/mL and 6.25 µg/mL, respectively.
Consider `COC1(C)CC(C)C(=O)C(C)C2NC(=O)OC2(C)C(CCNC(=O)Oc2ccc(-c3ccccc3)cc2)OC(=O)C(C)C(=O)C(C)C1OC1OC(C)CC(N(C)C)C1O` (centres unmarked) [Compound 112], for which the MIC with S. pneumoniae ATCC 6301 is 0.025 µg/mL; in [1], 0.025 µg/mL; in assay [2] it was 0.025 µg/mL; in [3], 0.78 µg/mL; in [4], 0.025 µg/mL; in assay [5] it was 0.049 µg/mL. In addition, the MIC is 0.049 µg/mL in the assay on S. pneumoniae ATCC 49619, 3.12 µg/mL in the assay on H. influenzae ATCC 9006 and 6.25 µg/mL in the assay on H. influenzae ATCC 49766.
`COC1(C)CC(C)C(=O)C(C)C2NC(=O)OC2(C)C(CCNC(=O)Oc2cccc(-c3cccnc3)c2)OC(=O)C(C)C(=O)C(C)C1OC1OC(C)CC(N(C)C)C1O` (centres unmarked) [Compound 109]: the MIC (in the assay on S. pneumoniae ATCC 6301; in assay [1]; in assay [2]; in [3]; in assay [4]; in assay [5]) was 0.025 µg/mL in each case. Also, the MIC with S. pneumoniae ATCC 49619 is 0.025 µg/mL; in the assay with H. influenzae ATCC 9006 it was 1.56 µg/mL; in the assay on H. influenzae ATCC 49766 it was 1.56 µg/mL.
With `CC[C@H]1OC(=O)[C@H](C)[C@@H](O[C@H]2C[C@@](C)(OC)[C@@H](O)[C@H](C)O2)[C@H](C)[C@@H](O[C@@H]2O[C@H](C)C[C@H](N(C)C)[C@H]2O)[C@](C)(O)C[C@@H](C)C(=O)[C@H](C)[C@@H](O)[C@]1(C)O` [Ery A, erythromycin A, reference compound], the MIC in the assay with S. aureus ATCC 6538p worked out at 0.098 µg/mL; in the assay with S. aureus ATCC 29213 it was 0.20 µg/mL; in the assay with S. pneumoniae ATCC 6301, 0.025 µg/mL; in [1], 0.049 µg/mL; in assay [2], 6.25 µg/mL; in assay [3] it was 6.25 µg/mL. For the same compound, the MIC is 3.12 µg/mL in assay [4]; 0.049 µg/mL with S. pneumoniae ATCC 49619; 0.20 µg/mL in assay [6]; 1.56 µg/mL in the assay on H. influenzae ATCC 9006; 6.25 µg/mL with H. influenzae ATCC 49766.
Consider `COC1(C)CC(C)C(=O)C(C)C2NC(=O)OC2(C)C(CCNC(=O)Oc2cccc(-c3ccncc3)c2)OC(=O)C(C)C(=O)C(C)C1OC1OC(C)CC(N(C)C)C1O` (centres unmarked) [Compound 110], for which the MIC in the assay on S. pneumoniae ATCC 6301 is 0.025 µg/mL; in assay [1], 0.025 µg/mL; in assay [2], 0.025 µg/mL; in assay [3], 0.025 µg/mL; in assay [4], 0.025 µg/mL; in [5], 0.049 µg/mL. Moreover, the results for the MIC in the assay on S. pneumoniae ATCC 49619, in the assay with H. influenzae ATCC 9006 and in the assay with H. influenzae ATCC 49766 were 0.025 µg/mL, 1.56 µg/mL and 3.12 µg/mL, respectively.
With `COC1(C)CC(C)C(=O)C(C)C2NC(=O)OC2(C)C(CCNC(=O)Oc2cccc(-c3ccccc3)c2)OC(=O)C(C)C(=O)C(C)C1OC1OC(C)CC(N(C)C)C1O` (centres unmarked) [Compound 111], the MIC (in the assay with S. pneumoniae ATCC 6301; in assay [1]; in [2]; in assay [3]; in assay [4]; in assay [5]) was 0.025 µg/mL throughout. The MIC was found to be 0.049 µg/mL in the assay on S. pneumoniae ATCC 49619, 1.56 µg/mL with H. influenzae ATCC 9006 and 1.56 µg/mL in the assay with H. influenzae ATCC 49766.
Regarding `COC1(C)CC(C)C(=O)C(C)C2NC(=O)OC2(C)C(CCNC(=O)OCC(C)C)OC(=O)C(C)C(=O)C(C)C1OC1OC(C)CC(N(C)C)C1O` (centres unmarked) [Compound 117], the MIC is 0.025 µg/mL with S. pneumoniae ATCC 6301; 0.098 µg/mL in assay [1]; 0.025 µg/mL in [2]; greater than 12.5 µg/mL in [3]; 0.025 µg/mL in [4]; greater than 12.5 µg/mL in assay [5]. Further, the MIC with S. pneumoniae ATCC 49619 is 0.025 µg/mL; in the assay with H. influenzae ATCC 9006, 6.25 µg/mL; in the assay on H. influenzae ATCC 49766, 6.25 µg/mL.
On to `COC1(C)CC(C)C(=O)C(C)C2NC(=O)OC2(C)C(CCNC(=O)Oc2ccc(F)cc2)OC(=O)C(C)C(=O)C(C)C1OC1OC(C)CC(N(C)C)C1O` (centres unmarked) [Compound 116], for which the MIC in the assay on S. pneumoniae ATCC 6301 came to 0.025 µg/mL; in assay [1], 0.025 µg/mL; in [2], 0.025 µg/mL; in [3], 0.39 µg/mL; in assay [4], 0.025 µg/mL; in assay [5], 0.098 µg/mL. Further, the values for the MIC in the assay with S. pneumoniae ATCC 49619, with H. influenzae ATCC 9006 and in the assay with H. influenzae ATCC 49766 were 0.049 µg/mL, 3.12 µg/mL and 6.25 µg/mL, respectively.
For `COC1(C)CC(C)C(=O)C(C)C2NC(=O)OC2(C)C(CCNC(=O)Oc2ccc3ccccc3c2)OC(=O)C(C)C(=O)C(C)C1OC1OC(C)CC(N(C)C)C1O` (centres unmarked) [Compound 113], the MIC (in the assay with S. pneumoniae ATCC 6301; in [1]; in assay [2]; in assay [3]; in assay [4]; in assay [5]) was 0.025 µg/mL each time. For the same compound, the MIC in the assay with S. pneumoniae ATCC 49619 was 0.025 µg/mL; with H. influenzae ATCC 9006 it was 1.56 µg/mL; in the assay with H. influenzae ATCC 49766, 1.56 µg/mL.
With `COC(=O)NCCC1OC(=O)C(C)C(=O)C(C)C(OC2OC(C)CC(N(C)C)C2O)C(C)(OC)CC(C)C(=O)C(C)C2NC(=O)OC12C` (centres unmarked) [Compound 118], the MIC is 0.49 µg/mL in the assay on S. aureus ATCC 6538p; 0.39 µg/mL in the assay on S. aureus ATCC 14154; 0.025 µg/mL in the assay on S. pneumoniae ATCC 6301; 0.049 µg/mL in [1]; 0.098 µg/mL in assay [2]; 0.39 µg/mL in [3]. In addition, the MIC in [4] is 0.98 µg/mL; in assay [5], greater than 12.5 µg/mL; in the assay on S. pneumoniae ATCC 49619, 0.049 µg/mL; with H. influenzae ATCC 9006, 6.25 µg/mL; with H. influenzae ATCC 49766, 3.12 µg/mL.
`COC1(C)CC(C)C(=O)C(C)C2NC(=O)OC2(C)C(CCNC(=O)Oc2cccc3ccccc23)OC(=O)C(C)C(=O)C(C)C1OC1OC(C)CC(N(C)C)C1O` (centres unmarked) [Compound 114]: the MIC with S. aureus ATCC 6538p amounted to 0.025 µg/mL; in the assay on S. aureus ATCC 14154, 0.025 µg/mL; in the assay on S. pneumoniae ATCC 6301, 0.025 µg/mL; in assay [1], 0.025 µg/mL; in [2], 0.098 µg/mL; in assay [3] it was 0.049 µg/mL. For the same compound, the MIC stood at 0.025 µg/mL in [4], 6.25 µg/mL in assay [5], 0.049 µg/mL in the assay on S. pneumoniae ATCC 49619 and 3.12 µg/mL in the assay on H. influenzae ATCC 49766.
Consider `COC1(C)CC(C)C(=O)C(C)C2NC(=O)OC2(C)C(CCNC(=O)OCC2c3ccccc3-c3ccccc32)OC(=O)C(C)C(=O)C(C)C1OC1OC(C)CC(N(C)C)C1O` (centres unmarked) [Compound 115], for which the MIC (in the assay on S. pneumoniae ATCC 6301; in [1]; in assay [2]; in assay [3]; in assay [4]; in [5]) was 0.025 µg/mL throughout. Also, the MIC in the assay with S. pneumoniae ATCC 49619 turned out to be 0.025 µg/mL; in the assay on H. influenzae ATCC 9006 it was 0.78 µg/mL; in the assay with H. influenzae ATCC 49766, 1.56 µg/mL.
In the case of `COC1(C)CC(C)C(=O)C(C)C2NC(=O)OC2(C)C(CCNC(=O)Nc2cccc3ccccc23)OC(=O)C(C)C(=O)C(C)C1OC1OC(C)CC(N(C)C)C1O` (centres unmarked) [Compound 119], the MIC came out at 0.025 µg/mL in the assay on S. pneumoniae ATCC 6301; 0.049 µg/mL in [1]; 0.049 µg/mL in assay [2]; 0.78 µg/mL in assay [3]; 0.025 µg/mL in assay [4]; 0.098 µg/mL in assay [5]. For the same compound, the MIC in the assay with S. pneumoniae ATCC 49619 was found to be 0.025 µg/mL; in the assay with H. influenzae ATCC 9006, 6.25 µg/mL; in the assay with H. influenzae ATCC 49766 it was 3.12 µg/mL.

Values taken from patent US8063021B2, “Ketolide anti-infective compounds” (Kosan Biosciences Incorporated, priority 2003, dated 2011).
